PMC9570233, “Improving Both the Thermostability and Catalytic Efficiency of Phospholipase D from Moritella sp. JT01 through Disulfide Bond Engineering Strategy” (International Journal of Molecular Sciences, 2022)
Positions count from the first letter of the chain named.

Experiments:
MsPLD [1] = molecular target: T1, MsPLD (Moritella sp. JT01, UniProt A0A137SLD1); experiment: coupled choline oxidase/peroxidase colorimetric assay ([…] nm), non-linear regression; format: biochemical; conditions: 35 °C, pH 8.0, PC 1.0-3.0 mM, 5 min; hydrolysis; free enzyme
T1 construct: gene AKG98_3441; tag removal not mentioned
T1 sequence (A0A137SLD1 29-578): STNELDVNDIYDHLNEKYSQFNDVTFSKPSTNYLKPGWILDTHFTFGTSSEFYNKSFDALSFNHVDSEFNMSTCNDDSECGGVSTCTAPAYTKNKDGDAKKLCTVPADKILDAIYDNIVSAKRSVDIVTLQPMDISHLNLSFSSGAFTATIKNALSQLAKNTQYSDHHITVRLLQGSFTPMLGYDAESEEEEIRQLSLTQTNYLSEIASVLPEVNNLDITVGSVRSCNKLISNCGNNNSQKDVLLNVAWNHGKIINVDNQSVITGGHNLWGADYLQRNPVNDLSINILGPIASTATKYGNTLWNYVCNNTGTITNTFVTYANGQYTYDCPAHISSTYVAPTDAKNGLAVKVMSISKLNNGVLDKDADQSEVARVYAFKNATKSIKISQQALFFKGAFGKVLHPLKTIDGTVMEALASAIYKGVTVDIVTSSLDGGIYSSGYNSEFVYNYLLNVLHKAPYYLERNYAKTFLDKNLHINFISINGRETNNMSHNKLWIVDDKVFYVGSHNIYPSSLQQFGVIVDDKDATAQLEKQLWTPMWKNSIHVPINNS

MsPLD [2] = molecular target: T2, MsPLD (Moritella sp. JT01, UniProt A0A137SLD1, S169C/T227C/D246C/A349C); experiment: as above; format: biochemical; conditions: 35 °C, pH 8.0, PC 1.0-3.0 mM, 5 min; hydrolysis; free enzyme
T2 construct: gene AKG98_3441; tag removal not mentioned
T2 sequence (A0A137SLD1 29-578 S169C/T227C/D246C/A349C): T1 sequence (A0A137SLD1 29-578) with S141C, T199C, D218C, A321C

Work on L-α-phosphatidylcholine yielded a Km (MsPLD [1]) of 3.44 ± 0.81 mM and a Km (MsPLD [2]) of 2.71 ± 0.89 mM.
